# Measurements published in patent publication US12643889B2, “Synthesis of novel EP4 antagonist and use in cancer and inflammation” (Wuhan Humanwell Innovative Drug Research And Development …, priority 2020, dated 2026).
# Tests used:
# [1] = Canine pharmacokinetic assay; assay type: in vivo, male Beagle dogs
# Experimental: In a mouse pharmacokinetic assay, male ICR mice (20 g to 25 g) were selected and fasted overnight. Three mice were selected and intragastrically administered with 5 mg/kg of the corresponding compound. The blood of the mice was collected before the administration and at 15 min, 30 min, 1 h, 2 h, 4 h, 8 h, 24 h after the administration. Another 3 mice were intravenously administered with 1 mg/kg of the corresponding compound, and the blood thereof was collected before the administration and at 15 min, 30 min, 1 h, 2 h, 4 h, 8 h, 24 h after the administration. The blood samples were centrifuged at 6800 g at 2° C. to 8° C. for 6 minutes, and plasma was collected and stored at −80° C. The plasma was taken at respective time point, mixed with 3-5 times the amount of acetonitrile containing internal standard, vortexed for 1 minute, centrifuged at 4° C. for 10 minutes at 13000 rpm, supernatant was added 3 times the amount of water, and the appropriate mixture was taken for LC-MS/MS analysis. The primary pharmacokinetic parameters were analyzed with a WinNonlin 7.0 software, with non-compartmental model.
# In a canine pharmacokinetic assay, male Beagle dogs (8 kg to 10 Kg) were selected and fasted overnight. Three Beagle dogs were taken and intragastrically administered with 3 mg/kg of the corresponding compound. Another 3 Beagle dogs were intravenously administered with 1 mg/kg of the corresponding compound. The following operations were the same as the mouse pharmacokinetic assay.
# [2] = biological target: T1, recombinant human EP4 receptor membrane protein (Homo sapiens, UniProt P35408); assay: Radioligand binding assay for EP4 receptor ([3H]-PGE2); conditions: [3H]-PGE2 1.5 nM; membrane protein 20 μg/well
# T1 construct: expressed in transfected cells; host or cells: membranes of 293 cells overexpressing human EP4 receptor
# T1 sequence (P35408 whole entry): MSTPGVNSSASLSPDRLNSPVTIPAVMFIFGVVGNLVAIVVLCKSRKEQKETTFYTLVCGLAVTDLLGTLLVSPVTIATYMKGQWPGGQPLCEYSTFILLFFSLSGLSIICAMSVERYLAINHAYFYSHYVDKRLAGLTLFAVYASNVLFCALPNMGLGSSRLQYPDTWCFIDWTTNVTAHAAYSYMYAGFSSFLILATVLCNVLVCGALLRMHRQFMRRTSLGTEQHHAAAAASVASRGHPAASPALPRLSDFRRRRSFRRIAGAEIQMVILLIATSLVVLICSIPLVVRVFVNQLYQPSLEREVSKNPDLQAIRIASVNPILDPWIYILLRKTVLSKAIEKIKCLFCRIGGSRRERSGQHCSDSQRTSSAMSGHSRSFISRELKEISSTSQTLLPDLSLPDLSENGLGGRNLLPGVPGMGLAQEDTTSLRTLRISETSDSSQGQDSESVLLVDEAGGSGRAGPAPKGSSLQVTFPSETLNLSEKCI
# Experimental: The compounds to be tested and PGE2 were formulated as 10 mM stocks in a DMSO solvent, and then 8 concentration points of 4× working solution were serially diluted using a buffer (50 mM HBSS, 0.1% BSA, 500 mM NaCl). […] Unifilter-96 GF/C filter plate (Perkin Elmer) was soaked with 0.5% BSA, 50 μL per well, for at least 30 min at room temperature. After binding was complete, the reaction mixture was harvested through a GF/C plate using a Perkin Elmer Filtermate Harvester, followed by washing the filter plate and drying the filter plate for 1 hour at 50° C. After drying, the bottom of the filter plate wells was sealed using a Perkin Elmer Unifilter-96 sealing tape, and 50 μL of MicroScint™-20 cocktail (Perkin Elmer) was added to seal the top of the filter plate. The ^3H counts captured on the filter were read using a Perkin Elmer MicroBeta2 Reader.
# The IC50 and Ki values of the compounds determined by the radioligand binding assay for EP4 receptor were calculated based on the inhibition rate of the different concentrations of the compounds.
# [3] = male, Beagle, dog, plasma, canine, intravenous administration 1 mg/kg
# [4] = male, Beagle, dog, plasma, canine, oral gavage administration 3 mg/kg
smiles,measurement,setting,value
"C[C@H](NC(=O)c1c(C(F)F)nn(C)c1Oc1cccc(C(C)(F)F)c1)c1ccc(C(=O)O)cc1 [Compound I-5, (S)-4-(1-(5-(3-(1,1-difluoroethyl)phenoxy)-3-(difluoromethyl)-1-methyl-1H-pyrazole-4-carboxamido)ethyl)benzoic Acid]",exposure after oral administration relative to the control compound,"[1]; canines, oral administration",about 2 times
same,AUC(0-t),[1]; [3],4370 ng·h/mL
same,clearance,[1]; [3],3.5 mL/min/kg
same,half-life,[1]; [3],9.73 h
same,Vd,"[1]; male, Beagle, dog, plasma, canine, intravenous administration 1 mg/kg, read-out: Vz",2.84 L/kg
same,AUC(0-t),[1]; [4],10300 ng·h/mL
same,Cmax,[1]; [4],4820 ng/mL
same,Tmax,[1]; [4],0.25 h
same,half-life,[1]; [4],19.9 h
same,IC50,[2],5.3 nM
same,Ki,[2],2.9 nM
